{
  "source": "patent US5227163A",
  "about": "“Lice-repellant compositions” (priority 1992, dated 1993)",
  "data": [
    {"test_system": "lice", "assay": "Standard in vitro test on filter paper (petri-dish lice repellency)", "conditions": "10 min, 20±3° C.", "procedure": "Screening tests were performed on many substances of the following groups: terpenes (hydrocarbons), terpenoid alcohols, terpenoid esters, terpenoid aldehydes and ketones, essential oils which contain terpenoids and perfumes which contain terpenoids, as well as various general insect repellents, for lice-repellency. Each experiment included exposure of the lice to different concentrations of the tested substance, and measuring the dose response of those materials.\nA petri-dish method was used to examine the repellency of the solutions for lice. A filter paper (Whatman No. 4, 5.5 cm in diameter) was secured in a petri-dish. A 100 μl portion of the test solution was placed on a corduroy patch (1.5 cm^2). The material was allowed to dry for 30 min. at room temperature (20±3° C.) and the patch was placed at the periphery of the petri-dish. A patch treated with a control solution (96% Ethanol) was placed on the opposite side of the dish. Twenty female lice which had been fed 24 hours previously were placed in the middle of the dish. A box was placed over the dish and it was covered with a dark cloth in order to keep the test area in the dark. The experiment was carried out at room temperature (20°±3° C.) and lasted 10 min. The number of lice on the treated and controlled patches as well as on the area between the patches was recorded in a protocol. The experiment was repeated three times for each sample.\n% repellency was calculated by the following formula:\nwhere: T=number of lice on the treated patch\nC=number of lice on the untreated patch\nThe following terms were recorded:\nRC80 =Concentration giving 80% repellency.\nRC50 =Concentration giving 50% repellency.\nRD80 =mg/cm^2 giving 80% repellency.\nRD50 =mg/cm^2 giving 50% repellency.", "units": {"RC50 (Concentration giving 50% repellency)": "%", "RC80 (Concentration giving 80% repellency)": "%", "RD80 (mg/cm^2 giving 80% repellency)": "mg/cm^2", "RD50 (mg/cm^2 giving 50% repellency)": "mg/cm^2"}, "values": [
      {"compound": "CC1=CC=C(C(C)C)CC1", "RC50 (Concentration giving 50% repellency)": 0.900, "RC80 (Concentration giving 80% repellency)": 1.500, "RD80 (mg/cm^2 giving 80% repellency)": 1.050},
      {"compound": "CC(=O)O[C@@H]1C[C@H]2CC[C@]1(C)C2(C)C", "note": "(racemic) [ISO BORNYL ACETATE]", "RC50 (Concentration giving 50% repellency)": 0.600, "RC80 (Concentration giving 80% repellency)": 0.800, "RD80 (mg/cm^2 giving 80% repellency)": 0.560},
      {"compound": "C=C(C)[C@H]1CC=C(C)CC1", "note": "[+ LIMONENE]", "RC50 (Concentration giving 50% repellency)": 2.000, "RC80 (Concentration giving 80% repellency)": 3.000, "RD80 (mg/cm^2 giving 80% repellency)": 2.100},
      {"compound": "C=C(C)[C@@H]1CC=C(C)CC1", "note": "[- LIMONENE]", "RC50 (Concentration giving 50% repellency)": 3.000, "RC80 (Concentration giving 80% repellency)": 4.000, "RD80 (mg/cm^2 giving 80% repellency)": 2.800},
      {"compound": "CC1=CCC2C(C1)C2(C)C", "note": "(centres unmarked) [CARENE]", "RC50 (Concentration giving 50% repellency)": 1.000, "RC80 (Concentration giving 80% repellency)": 2.000, "RD80 (mg/cm^2 giving 80% repellency)": 1.400},
      {"compound": "C=C(C)C1CC=C(C)[C@@H](O)C1", "note": "(some centres unmarked) [CARVEOL, carveol]", "RC50 (Concentration giving 50% repellency)": 0.600, "RC80 (Concentration giving 80% repellency)": 1.500, "RD80 (mg/cm^2 giving 80% repellency)": 1.050},
      {"compound": "C=C(C)C1CC=C(C)C(OC(=O)CC)C1", "note": "(centres unmarked) [CARVYL PROPRIONATE, carvyl propionate]", "RC50 (Concentration giving 50% repellency)": 0.200, "RC80 (Concentration giving 80% repellency)": 0.600, "RD50 (mg/cm^2 giving 50% repellency)": 0.140, "RD80 (mg/cm^2 giving 80% repellency)": 0.420},
      {"compound": "CC(C)=CCCC(C)=CC=O", "note": "[CITRAL]", "RC50 (Concentration giving 50% repellency)": 0.300, "RC80 (Concentration giving 80% repellency)": 0.600, "RD80 (mg/cm^2 giving 80% repellency)": 0.420},
      {"compound": "CC1(C)C2CCC(CO)C1C2", "note": "(stereo not drawn) [Cis MYRTANOL]", "RC50 (Concentration giving 50% repellency)": 0.600, "RC80 (Concentration giving 80% repellency)": 1.000, "RD50 (mg/cm^2 giving 50% repellency)": 0.420, "RD80 (mg/cm^2 giving 80% repellency)": 0.700},
      {"compound": "CC1=CC(O)C2CC1C2(C)C", "note": "(stereo not drawn) [Cis VERBENOL, cis-verbenol]", "RC50 (Concentration giving 50% repellency)": 1.000, "RC80 (Concentration giving 80% repellency)": 2.000, "RD50 (mg/cm^2 giving 50% repellency)": 0.700, "RD80 (mg/cm^2 giving 80% repellency)": 1.400},
      {"compound": "C=C(C)C1CCC(C)C(O)C1", "note": "(centres unmarked) [DIHYDRO CARVEOL, dihydrocarveol]", "RC50 (Concentration giving 50% repellency)": 0.400, "RC80 (Concentration giving 80% repellency)": 0.900, "RD50 (mg/cm^2 giving 50% repellency)": 0.280, "RD80 (mg/cm^2 giving 80% repellency)": 0.630},
      {"compound": "C=C(C)C1CCC(C)C(=O)C1", "note": "(centres unmarked) [DIHYDRO CARVONE]", "RC50 (Concentration giving 50% repellency)": 0.200, "RC80 (Concentration giving 80% repellency)": 0.500, "RD80 (mg/cm^2 giving 80% repellency)": 0.350},
      {"compound": "C=CC(C)CCCC(C)(C)O", "note": "(centres unmarked) [DIHYDRO MYRCENOL, dihydro-myrcenol]", "RC50 (Concentration giving 50% repellency)": 0.600, "RC80 (Concentration giving 80% repellency)": 0.800, "RD80 (mg/cm^2 giving 80% repellency)": 0.560},
      {"compound": "C=C(C)C1CCC(C)C(OC(C)=O)C1", "note": "(centres unmarked) [DIH[…]]", "RC50 (Concentration giving 50% repellency)": 0.150, "RC80 (Concentration giving 80% repellency)": 0.300, "RD50 (mg/cm^2 giving 50% repellency)": 0.105, "RD80 (mg/cm^2 giving 80% repellency)": 0.210},
      {"compound": "CC(C)=CCC/C(C)=C/CO", "note": "[GERANIOL, geraniol]", "RC50 (Concentration giving 50% repellency)": 0.005, "RC80 (Concentration giving 80% repellency)": 0.020, "RD80 (mg/cm^2 giving 80% repellency)": 0.014},
      {"compound": "CC1C(O)CC2CC1C2(C)C", "note": "(centres unmarked) [ISOPINO-CAMPHEOL, iso-pinocampheol]", "RC50 (Concentration giving 50% repellency)": 0.200, "RC80 (Concentration giving 80% repellency)": 0.300, "RD50 (mg/cm^2 giving 50% repellency)": 0.140, "RD80 (mg/cm^2 giving 80% repellency)": 0.210},
      {"compound": "C=C(C)[C@@H]1CC[C@@H](C)C[C@H]1O", "note": "[ISOPULEGOL, isopulegol]", "RC50 (Concentration giving 50% repellency)": 0.500, "RC80 (Concentration giving 80% repellency)": 0.800, "RD80 (mg/cm^2 giving 80% repellency)": 0.560},
      {"compound": "C=CC(C)(O)CCC=C(C)C", "note": "(centres unmarked) [LINALOOL, linalool]", "RC50 (Concentration giving 50% repellency)": 0.020, "RC80 (Concentration giving 80% repellency)": 0.080, "RD80 (mg/cm^2 giving 80% repellency)": 0.056},
      {"compound": "CC1CCC(C(C)C)C(O)C1", "note": "(centres unmarked) [MENTHOL, menthol]", "RC50 (Concentration giving 50% repellency)": 0.030, "RC80 (Concentration giving 80% repellency)": 0.150, "RD80 (mg/cm^2 giving 80% repellency)": 0.105},
      {"compound": "CC1CCC(C(C)C)C(OC(=O)C(C)O)C1", "note": "(centres unmarked) [MENTHYL LACTATE, menthyl lactate]", "RC50 (Concentration giving 50% repellency)": 0.050, "RC80 (Concentration giving 80% repellency)": 0.100, "RD80 (mg/cm^2 giving 80% repellency)": 0.070},
      {"compound": "CC1(C)C2CC=C(CO)C1C2", "note": "(centres unmarked) [MYRTENOL, myrtenol]", "RC50 (Concentration giving 50% repellency)": 0.500, "RC80 (Concentration giving 80% repellency)": 0.900, "RD50 (mg/cm^2 giving 50% repellency)": 0.350, "RD80 (mg/cm^2 giving 80% repellency)": 0.630},
      {"compound": "CC(C)=CCC/C(C)=C\\CO", "note": "[NEROL, nerol]", "RC50 (Concentration giving 50% repellency)": 0.500, "RC80 (Concentration giving 80% repellency)": 0.800, "RD80 (mg/cm^2 giving 80% repellency)": 0.560},
      {"compound": "C=C(C)[C@@H]1CC=C(CO)CC1", "note": "[PERILLIL ALCOHOL, perillyl alcohol]", "RC50 (Concentration giving 50% repellency)": 0.010, "RC80 (Concentration giving 80% repellency)": 0.030, "RD80 (mg/cm^2 giving 80% repellency)": 0.020},
      {"compound": "CC(C)=C1CC[C@@H](C)CC1=O", "note": "[PULEGONE]", "RC50 (Concentration giving 50% repellency)": 0.400, "RC80 (Concentration giving 80% repellency)": 0.700, "RD80 (mg/cm^2 giving 80% repellency)": 0.490},
      {"compound": "CC1=CCC(O)(C(C)C)CC1", "note": "(centres unmarked) [terpinen-4-ol]", "RC50 (Concentration giving 50% repellency)": 0.020, "RC80 (Concentration giving 80% repellency)": 0.090, "RD80 (mg/cm^2 giving 80% repellency)": 0.063},
      {"compound": "C=C1CCC2CC1C2(C)C", "note": "(stereo not drawn) [β PINENE]", "RC50 (Concentration giving 50% repellency)": 0.200, "RC80 (Concentration giving 80% repellency)": 1.100, "RD80 (mg/cm^2 giving 80% repellency)": 0.770},
      {"compound": "CC(C)=CCCC(C)CCO", "note": "(stereo not drawn) [β-CITRONELLOL, β-citronellol]", "RC50 (Concentration giving 50% repellency)": 0.020, "RC80 (Concentration giving 80% repellency)": 0.070, "RD80 (mg/cm^2 giving 80% repellency)": 0.049},
      {"compound": "IONONE", "RC50 (Concentration giving 50% repellency)": 0.250, "RC80 (Concentration giving 80% repellency)": 0.600, "RD50 (mg/cm^2 giving 50% repellency)": 0.170, "RD80 (mg/cm^2 giving 80% repellency)": 0.420}
    ]}
  ]
}
